The results in this text go back to patent publication US20210238173A1, “MITOGEN-ACTIVATED PROTEIN KINASE KINASE 7 INHIBITORS” (Yeda Research and Development Co. Ltd., priority 2018, published 2021).

The target in data set [1] is T1, MKK7 (Homo sapiens, UniProt O14733).
T1 construct: purchased Nanosyn (contract assay)
T1 sequence (O14733 1-419): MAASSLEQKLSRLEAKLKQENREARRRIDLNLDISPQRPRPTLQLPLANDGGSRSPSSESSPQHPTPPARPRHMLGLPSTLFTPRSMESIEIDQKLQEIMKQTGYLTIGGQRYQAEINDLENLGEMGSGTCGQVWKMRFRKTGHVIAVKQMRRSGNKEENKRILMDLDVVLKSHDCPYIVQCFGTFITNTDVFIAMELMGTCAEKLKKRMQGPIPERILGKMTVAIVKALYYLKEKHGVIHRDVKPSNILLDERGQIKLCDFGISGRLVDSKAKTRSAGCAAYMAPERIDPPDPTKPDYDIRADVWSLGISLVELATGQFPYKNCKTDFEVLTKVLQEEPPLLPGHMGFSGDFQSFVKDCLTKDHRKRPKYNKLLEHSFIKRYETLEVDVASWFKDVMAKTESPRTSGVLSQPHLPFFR
Nature of the data set: In vitro kinase activity assay for MKK7 (Nanosyn). Particulars: read-out: MKK7 IC50 in vitro. The data set is classed as biochemical. The method, then:
Based on visual inspection of the top 500 predictions, 10 compounds were selected for synthesis and testing (see, Table 1). The “Docking rank” is given in its respective run, whereas four virtual libraries of acrylamides were docked separately, based on the amine precursor for the acrylamide (primary or secondary aliphatic amines, primary or secondary aromatic amines). In vitro kinase activity assay was carried out by Nanosyn, as described below.
(§1) In Vitro Activity Assays for MKK7 or MKK4 (Carried by Nanosyn):
(§2) Exemplary test compounds, according to some embodiments of the present invention, were diluted in DMSO to a final concentration that ranged from 10 μM to 0.0565 nM, while final concentration of DMSO in all assays was kept at 1%. Reference compound, Staurosporine, was tested in a similar manner. […] After incubation, activity of now activated JNK1 was tested in the presence of 30 μM ATP ATP for 17 h (MKK7) or 4 h (MKK4).

The target in data set [2] is T2, MKK4 (Homo sapiens, UniProt P45985).
T2 construct: purchased Nanosyn (contract assay)
T2 sequence (P45985 1-399): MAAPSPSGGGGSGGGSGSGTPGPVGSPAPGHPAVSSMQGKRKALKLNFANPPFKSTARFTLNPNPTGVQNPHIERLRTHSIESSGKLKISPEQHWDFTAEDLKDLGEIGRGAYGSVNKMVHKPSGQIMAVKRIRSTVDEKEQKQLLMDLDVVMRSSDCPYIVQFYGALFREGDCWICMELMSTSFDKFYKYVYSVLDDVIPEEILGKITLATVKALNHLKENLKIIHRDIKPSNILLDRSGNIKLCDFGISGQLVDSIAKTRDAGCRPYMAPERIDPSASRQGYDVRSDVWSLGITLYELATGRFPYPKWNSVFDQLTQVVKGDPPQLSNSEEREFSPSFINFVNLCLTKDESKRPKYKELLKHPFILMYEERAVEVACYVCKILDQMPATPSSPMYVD
Kind of data set: In vitro activity assay for MKK4 (Nanosyn). The data set is classed as biochemical. The method, then:
as §1, §2

A short description of data set [3]: Metabolic stability in mouse liver microsomes. Type of data set: in vitro ADME. Particulars: for half-life: mouse, liver microsomes. The source says:
(§3) A reference compound, REF1250, was used in this study: […]
For orientation: Liver microsomes are a subcellular fraction often used to study metabolism.

Data set [4] in a line: Metabolic stability in rat liver microsomes. Type of data set: in vitro ADME. The following applies: for half-life: rat, liver microsomes.
Source text: as §3

A short description of data set [5]: Metabolic stability in dog liver microsomes. The following applies: for half-life: dog, liver microsomes. The data set is classed as in vitro ADME.
Source text: as §3

The nature of data set [6]: Metabolic stability in monkey liver microsomes. The data set is classed as in vitro ADME.
Source text: as §3

Data set [7] can be described thus: Metabolic stability in human liver microsomes. The data set is classed as in vitro ADME. The following applies: for half-life: human, liver microsomes.
Source text: as §3

Data set [8] deals with pJNK in HEK293 cells. Kind of data set: In-cell western (ICW) pJNK inhibition in HEK293. Type of data set: cell-based. Particulars: 2 h pre-incubation, sorbitol stimulation. Here is the method:
(§4) HEK293, Beas2B and 3T3 cells were plated 24 hours before procedure on 384 well clear bottom black flat plates (Corning) pre-coated with Fibronectin (Sigma) diluted in PBS to a concentration of 5 μg/ml 45 minutes prior to cells introduction. Cells were plated using Multidrop™ Combi reagent dispenser (Thermo Fisher Scientific). Compound, reagents and antibody dispensing as well as washes were performed with a CyBio liquid handler (Analytik). Cells were pre-incubated with a small molecule or up to 1% DMSO for 2 h before fixation. HEK293, 3T3 or Beas2B cells were treated with 0.6M/0.2M/0.2M D-Sorbitol/PBS (Sigma) for 20/40/40 min. respectively, before fixation. Media was removed and wells were immediately fixed with 150 μl per well of 3.7% formaldehyde/PBS fixing solution for 20 min. Formaldehyde was then aspired and cells were permeabilized with 150 μl of 0.5% Triton x-100/PBS solution for 10 min. After aspiration cells were washed with ice-cold methanol and stored at −20° C., for 10 min. Methanol was aspired and cells were blocked with 150 μl blocking buffer (LICOR) for 90 min. Primary antibody Phospho-SAPK/JNK T183/Y185 (CST; 9251S) was diluted 1:1000 in blocking buffer and was applied 50 μl per well, except control wells to which only blocking buffer was applied, O.N. (16 h) at 4° C. with mild shaking. Primary antibody was aspired, wells were washed with 150 μl 0.1% Tween20/PBS (Sigma) washing solution three times for 7 min. IRDye® 800CW Goat anti-Rabbit IgG Secondary antibody (LICOR) was then diluted 1:1200 in blocking buffer with 50 μl applied per well on control wells only (no CellTag control), then CellTag700 (1:2000) was added to the solution and 50 μl were added to all experiment wells, for 1 h at room temperature. Wells were aspired and washed again with 150 μl 0.1% Tween20/PBS (Sigma) washing solution three times for 7 min. plate was dried and scanned with Odyssey CLx imaging system at 700 nm and 800 nm (Licor). Wells signals were analyzed with Odyssey software. The signal was normalized by the CellTag700 signal.
(§5) To rapidly assess the cellular activity (EC50) with full dose response curves of the MKK7 covalent inhibitors, according to some embodiments of the present invention, an in-cell western assay was adapted to a 384 well plate format over traditional western blot, and monitored phospho-JNK (pJNK) levels in response to osmotic shock. We first characterized the dynamics of pJNK in response to sorbitol. Sufficient dynamic range for pJNK is achieved at 20 minutes in HEK293 cells and at 40 minutes in 3T3 and Beas2B cells. The compound's activity was assessed by pre-treating cells with either compound or DMSO for 2 hours, followed by Sorbitol stimulation. The response of pJNK, and its substrates, pc-Jun and pATF2, was measured, as well as pP38, which is a substrate of MKK4 but not MKK7, and pERK in HEK293 cells, and the results are presented in Table 5 below.

For data set [9], the system named is primary mouse B-cells. Nature of the data set: Primary B-cell activation (CD86+ FACS) in response to LPS. The data set is classed as cell-based. Particulars: for inhibition of the CD86+ response: 10 μM, 2 hours pre-incubation. The source says:
Compounds Block Activation of Primary Mouse B-Cells:
JNK is known to mediate activation of B-cells in response to lypopolysacharide (LPS) through the TLR4 signaling pathway as well as in response to B-cell receptor activation (stimulated e.g. with an anti-IgM antibody). Primary B-cells were isolated from the spleen of mice and assessed for their B-cell activation, via FACS analysis of CD86+ expression, in response to LPS in the presence or absence of the covalent MKK7 enzyme inhibitors presented herein, as well as a positive control JNK inhibitor, JNK-IN-8.
At 10 μM and 2 hours pre-incubation before stimulation, GO80 was able to inhibit 60% of the CD86+ response.

Data set [10] concerns pJNK in 3T3 WT cells. Kind of data set: In-cell western (ICW) pJNK inhibition in 3T3 WT. Type of data set: cell-based. The following applies: for EC50: 3T3 WT, ICW, 2 h pre-incubation, sorbitol stimulation. Here is the method:
as §4, §5
Wildtype 3T3 cells, 3T3 MKK7 double knock-out (MKK7^−/−) cells and MKK4/7 double knockouts (MKK4/7^−/−) were used to validate on target activity of the MKK7 covalent inhibitors presented herein.

Where [11] appears, read: Homo sapiens, HEK293, HEK293, ICW.

A word on the IC50: it is the concentration that inhibits the measured activity by half. Broadly, the half-life is the time needed for the level to fall by half in the phase considered. Regarding `C=CC(=O)Nc1cccc(-c2n[nH]c3cc(Br)ccc23)c1` [GO98], the results for the IC50 in data set [1] and in [2] were 10 nM and more than 10000 nM, respectively. Moreover, the “% remaining @ 40 min” value in data set [3] is given as 0%; in data set [4], 2%; in data set [5], 0%; in data set [6], 0%; in [7] it was 0%. For the same compound, the half-life was less than 5 min in data set [3]; 6 min in data set [4]; less than 5 min in data set [5]; less than 5 min in [6]; less than 5 min in [7].

What is called EC50 is the concentration needed to bring the measured effect to its halfway point. In the case of `C=CC(=O)Nc1cccc(-c2n[nH]c3cc(Cl)ccc23)c1` [GO106], the IC50 in data set [1] amounted to 5 nM. The EC50 in data set [8] (setting [11]) was determined as 3000 nM. Further, the “% remaining @ 40 min” value stood at 0% in data set [3]; 17% in [4]; 0% in [5]; 0% in data set [6]; 0% in data set [7]. The half-life in data set [3] was less than 5 min; in data set [4], 16 min; in data set [5], less than 5 min; in [6] it was less than 5 min; in data set [7], less than 5 min.

For `C=CC(=O)Nc1cc(C#N)cc(-c2n[nH]c3cc(C)ccc23)c1` [GO108], the IC50 in data set [1] was 2 nM; in data set [2], more than 10000 nM. Moreover, the EC50 in [8] (HEK293, ICW) came to 2300 nM; in data set [8] (setting [11]), 3700 nM. The “% remaining @ 40 min” value in data set [3] was determined as 0%; in data set [4], 6%; in [5], 0%; in data set [6], 0%; in data set [7], 0%. Further, the half-life is less than 5 min in [3]; 10 min in data set [4]; less than 5 min in data set [5]; less than 5 min in data set [6]; less than 5 min in data set [7].

For `Cc1cc(NC(=O)c2cccc(NC(=O)/C=C/CN(C)C)c2)ccc1Nc1nccc(-c2cccnc2)n1` [JNK-IN-8, reference compound], the “inhibition of the CD86+ response” value in data set [9] is listed as approximately 90%.

For the compound `C=CC(=O)Nc1cc(-c2n[nH]c3ccccc23)ccn1` [PCM475], the EC50 was 900 nM in data set [8] (HEK293, ICW) and 300 nM in [10]. In addition, the “% remaining @ 40 min” value is 0% in [3]; 22% in data set [4]; 5% in data set [5]; 18% in data set [6]; 0% in data set [7]. Also, the Halflife in data set [3] was less than 5 min; in data set [4] it was 18 min; in data set [5], 9 min; in [6], 16 min; in [7] it was less than 5 min. Besides, the “inhibition of the CD86+ response” value in [9] is listed as approximately 90%.

In [10], `C=CC(=O)Nc1cc(C(=O)O)cc(-c2n[nH]c3ccccc23)c1` [PCM476] registered an EC50 of more than 10000 nM. For the same compound, the “activity in ICW in 3T3 cells” value in data set [10] was “inactive”. For the same compound, the “% remaining @ 40 min” value in data set [3] is reported as 100%; in data set [4], 61%; in [5], 100%; in [6], 100%; in [7], 100%. Also, the Halflife in data set [3] was more than 40 min; in data set [4] it was more than 40 min; in data set [5] it was more than 40 min; in [6], more than 40 min; in data set [7], more than 40 min; in data set [7] (listed as PCM76), “more than 40 min”.

Regarding `C=CC(=O)Nc1cc(C(=O)NC)cc(-c2n[nH]c3ccccc23)c1` [PCM487], in data set [10] (listed as PCM87), the EC50 amounted to 4060 nM. The “% remaining @ 40 min” value in data set [3] stood at 3%; in [4] it was 72%; in data set [5], 71%; in data set [6] it was 41%; in [7], 38%. The Halflife in [3] was 8 min; in [4], more than 40 min; in data set [5], more than 40 min; in data set [6], 33 min; in data set [7], 27 min. Also, the “inhibition of the CD86+ response” value in [9] is listed as approximately 90%. The compound also yielded an IC50 in data set [9] (full dose response) of 4900 nM.

On to `C=CC(=O)N[C@H]1CCCN(c2[nH]nc3ccccc23)C1` [PCM531], for which the EC50 in [8] (setting [11]) is more than 10000 nM. The “activity in ICW in 3T3 cells” value in [10] is “inactive”.

`C=CC(=O)N[C@@H]1CCCN(c2[nH]nc3ccccc23)C1` [PCM532]: in data set [8] (setting [11]), the EC50 is more than 10000 nM. Besides, the “activity in ICW in 3T3 cells” value in data set [10] was “inactive”.

The compound `C=CC(=O)Nc1cc(C(=O)N(C)C)cc(-c2n[nH]c3ccccc23)c1` [PCM549] displayed an EC50 in data set [10] of more than 10000 nM.
